{"source": "patent US6355619B1", "about": "“Peptide tumor cell growth inhibitors” (Board of Regents, The University of Texas System, priority 1996, dated 2002)", "key": {"[1]": {"tested_on": "IL-8 receptors on neutrophils", "experiment": "Inhibition of 125I-labeled IL-8 binding to human neutrophils", "details": "for Receptor 1 Bmax of IL-8, two-site model / Receptor 2 Bmax of IL-8, two-site model: binding isotherms, Lundon I", "protocol": "Therefore, in pursuing this aim, the present inventors assayed various other peptide compositions for IL-8 inhibitory activity by screening a library of 400 groups of hexapeptides. In these screening assays, ^125I-labeled interleukin-8 (10^−12 M) was mixed with 100 μM peptide, then added to neutrophils and incubated at 4° C. for 90 min. The bound radioactivity was separated from unbound by centrifugation through a dense cushion of a mixture of paraffin and silicon oils and the ^125I bound to neutrophils was counted in a gamma radiation spectrometer, allowing the results to be expressed as the percent of IL-8 binding which was inhibited.\nThe use of human subjects for acquisition of neutrophils was approved by the Institutional Review Board for human experimentation. For the preparation of neutrophils, human blood was anticoagulated with heparin for enzyme release studies and with 0.33% sodium citrate for other studies. For chemotactic and enzyme release studies neutrophils were separated by dextran sedimentation and erythrocyte lysis by the method of Boyum (Kohler and Milstein, 1975). For binding studies and cytotoxic studies, the neutrophils were further purified in gradients of Percoll (Pharmacia Fine Chemicals, Piscataway, N.J.) to a purity of 90-93% (Kohler and Milstein, 1975).\nRecombinant human IL-8 (72 amino acids; Pepro Tech Inc., Rocky Hill, N.J.) was radioactively labeled with ^125I by the chloramine T method of Hunter and Greenwood (Hunter and Greenwood, 1962). Binding studies were performed according to Besemer et al. (1989), as follows: Neutrophils in phosphate buffered saline pH 7.4 (PBS) containing 0.1% bovine serum albumin (BSA) were incubated with labeled ligand in the presence or absence of the peptide being tested for 90 min at 4° C. to reach equilibrium and then centrifuged at 12,000×g for 3 min in Beckman B microfuge (Beckman Instruments, Fullerton, Calif.), through a cushion consisting of a mixture of paraffin oil Fisher Scientific, Fair Lawn, N.J.) and silicon oil (Serva Co., N.Y., N.Y.). The pellet and supernatant were then counted in a gamma radiation spectrometer. The non-specific binding was estimated to measure the binding in the presence of 100-fold excess of non-labeled ligand. The binding constants were calculated using the computer programs Lundon I and Lundon II.\nIn these studies, a screening for inhibition was carried out at 100 μM concentration of the peptide being tested, with a 10^−12 M concentration of IL-8. In the first series of studies, twenty peptides were synthesized with the carboxyl-terminal residue of RRWWCX (SEQ ID NO:23) being changed to each of the standard protein amino acids in turn."}, "neutrophils": {"tested_on": "neutrophils", "experiment": "Checkerboard analysis for chemotactic activity of the peptide itself", "format": "cell-based, human", "protocol": "Chemotaxis was performed using the leading front method as described by Zigmond and Hirsh (1973). IL-8 or controls were placed in the lower well of a Boyden chamber. A five micron pore size, 100 μm. thick cellulose nitrate filter (Sartorius Filter,. Inc., San Francisco, Calif.) was placed on the surface and the chamber was then assembled. A 200 μl aliquot of the neutrophil preparation (1×10^6 cells/ml) in RPMI-1640 media containing 1% BSA was added to the top of the filter and incubated at 37° C. for 30 min. The filter was then fixed, stained and mounted on a glass microscope slide. The leading front was determined by the position of the leading two cells. The distance that the leading two cells had moved through the filter was measured for six fields on each filter. The measurements were made with four filters for each set of conditions."}, "[2]": {"tested_on": "Hep G2 liver cancer cells", "experiment": "Cell growth assay, Hep G2", "format": "cell-based", "details": "72 hr", "protocol": "FIG. 15C. The effect of Antileukinate on the growth of melanoma cells. Melanoma cell lines and a control liver cancer cell line (2×10^4 cells/well) in 500 μl were cultured in a 24 well tissue culture plate in the presence of various concentrations of Antileukinate for 3 d. The culture media were changed to fresh media containing the same concentration of Antileukinate every 24 hr during the incubation period. After incubation, the cells were collected and the cell number was counted using a hemocytometer. Liver cancer cell line, Hep G2. Analysis of variance was used for multiple comparison.\nThe cell lines (2×10^4 cells/well) in 500 μl cell culture medium were grown in 24 well tissue culture plates. After the cells adhered to the plate, the supernatants were aspirated and 500 μl of media containing various concentrations of Antileukinate were added to the wells. The cells were cultured for period indicated in the text. The culture media were changed to fresh media every 24 hr. After incubation, the cells were detached with trypsin-EDTA solution (Life Technologies Inc., Gaithersburg, Md., containing 0.05% of trypsin and 0.53 mM of EDTA in Hanks Balanced Salt Solution without Ca^2+ and Mg^2+) and the cell number was counted using a hemocytometer."}, "Hs 294T": {"tested_on": "Hs 294T", "details": "16 hr", "experimental": "The cell lines (4×10^5 cells/well) in RPMI-1640 medium containing 10% fetal bovine serum were incubated with 10 μCi of Na2^51CrO4 (DuPont NEN Co.) for 60 min at 37° C. in a 24 well tissue culture plate. The cells were washed 3 times and then incubated in cell culture medium for 30 min at 37° C. to allow spontaneous lysis of marginally viable cells. […] The cells were cultured for 16 hr at 37° C. and then the radioactivity in the supernatants was counted in a gamma radiation spectrometer. Quadriplicate wells received cell culture medium alone or 2% SDS to determine spontaneous and maximum release, respectively. The percentage lysis was calculated by using the following formula: [formula]"}, "[3]": {"details": "Hep G2 culture, 100 μM peptide", "experimental": "Analysis for the breakdown of Antileukinate in the culture of Hep G2 cells. A total concentration of tritium labeled and unlabeled Antileukinate of 100 μM, was added to the culture of Hep G2 cells. Aliquots of medium were removed at different times and chromatographed on an HPLC Bondapak C18 reversed phase column. The peptides were eluted using a gradient from 0.1% TFA to 80% acetonitrile in 0.1% TFA. One milliliter fractions were collected and measured for their radioactivity using a liquid scintillation counter. The chromatographs show the elution volume of the radioactivity at different times after addition to the cells.\nHs 294T and Hep G2 cells, 2×10^4 cell/well, were cultured in 24 well tissue culture plates for 24 hr. Then the culture media were replaced with media containing tritiated Antileukinate, 0.2 μCi, mixed with 100 μM unlabeled peptide in each well. The cells were then cultured for the indicated periods. The supernatants were collected and stored at −70° C. until use. The breakdown of Antileukinate during the cell culture was analyzed on high performance liquid chromatography (HPLC) using an analytical C18 reversed phase column (Waters Co., New Bedford, Mass.). […] One milliliter fractions were collected and measured for their radioactivity content using a liquid scintillation counter."}, "[4]": {"details": "+10 μM Ac-RRWWCR, binding inhibition curves, Lundon II"}, "[5]": {"details": "peptide below filter 1.0 μM, above filter 5.0 μM"}, "[6]": {"details": "peptide below filter 1.0 μM, above filter 12.5 μM"}, "[7]": {"details": "peptide below filter 1.0 μM, above filter 25.0 μM"}, "[8]": {"details": "peptide below filter 5.0 μM, above filter 1.0 μM"}, "[9]": {"details": "peptide below filter 5.0 μM, above filter 12.5 μM"}, "[10]": {"details": "peptide below filter 5.0 μM, above filter 25.0 μM"}, "[11]": {"details": "peptide below filter 12.5 μM, above filter 1.0 μM"}, "[12]": {"details": "peptide below filter 12.5 μM, above filter 5.0 μM"}, "[13]": {"details": "peptide below filter 12.5 μM, above filter 25.0 μM"}, "[14]": {"details": "peptide below filter 25.0 μM, above filter 1.0 μM"}, "[15]": {"details": "peptide below filter 25.0 μM, above filter 5.0 μM"}, "[16]": {"details": "peptide below filter 25.0 μM, above filter 12.5 μM"}}, "note": "Read-outs that look alike come from different tables or passages of the source."}
{"substance": "RRWWCR [Ac-RRWWCR-NH2]", "values": [{"measurement": "concentration at which IL-8 binding was suppressed significantly", "setting": "[1]; 1 nM 125I-labeled IL-8 (FIG. 5)", "value": 100, "unit": "nM"}, {"measurement": "EC50", "setting": "[1]; 1 nM 125I-labeled IL-8, 90 min at 4° C., multiple replicates, read-out: average EC50 of the binding inhibition curve", "value": "13.7 ± 0.6", "unit": "µM"}, {"measurement": "EC50", "setting": "[1]; 1 nM IL-8, FIG. 10, peptide premixed with ligand 15 min, read-out: EC50, inhibition of binding of IL-8 to neutrophils", "value": "~25", "unit": "µM"}, {"measurement": "inhibition of IL-8 binding to neutrophils", "setting": "[1]; 10 μM peptide (FIG. 9)", "value": 20, "unit": "%"}, {"measurement": "Receptor 1 Bmax of IL-8, two-site model", "setting": "[1]; 10 μM peptide", "value": "91.9 ± 9.2", "unit": "fmole/10^6 cells"}, {"measurement": "Receptor 2 Bmax of IL-8, two-site model", "setting": "[1]; 10 μM peptide", "value": "90.9 ± 9.7", "unit": "fmole/10^6 cells"}, {"measurement": "IL-8 binding inhibition at lower peptide concentration (FIG. 1)", "setting": "[1]; 20 μM peptide", "value": "most potent inhibitor"}, {"measurement": "Receptor 1 Bmax of IL-8, two-site model", "setting": "[1]; 20 μM peptide", "value": "90.9 ± 27.3", "unit": "fmole/10^6 cells"}, {"measurement": "Receptor 2 Bmax of IL-8, two-site model", "setting": "[1]; 20 μM peptide", "value": "76.2 ± 11.8", "unit": "fmole/10^6 cells"}, {"measurement": "Receptor 1 Bmax of IL-8, two-site model", "setting": "[1]; 40 μM peptide", "value": "82.0 ± 25.4", "unit": "fmole/10^6 cells"}, {"measurement": "Receptor 2 Bmax of IL-8, two-site model", "setting": "[1]; 40 μM peptide", "value": "44.2 ± 30.0", "unit": "fmole/10^6 cells"}, {"measurement": "% INHIB. (IL-8 binding to neutrophils)", "setting": "[1]; 100 μM peptide, 10^−12 M IL-8, hexamer RRWWCX series, first screen", "value": 112.2, "unit": "%"}, {"measurement": "Receptor 1 Bmax of IL-8", "setting": "[1]; [4]", "value": "11.2 ± 0.8", "unit": "fmole/10^6 cells"}, {"measurement": "Receptor 2 Bmax of IL-8", "setting": "[1]; [4]", "value": "75.6 ± 0.7", "unit": "fmole/10^6 cells"}, {"measurement": "% INHIB. (IL-8 binding to neutrophils)", "setting": "[1]; first set of heptamer studies, D-amino acid RRWWCRX series, methodology of Example I", "value": 112.2, "unit": "%"}, {"measurement": "effectiveness relative to the non-acetylated peptide", "setting": "[1]; inhibiting IL-8 binding to neutrophils", "value": "almost twice as effective"}, {"measurement": "IC50", "setting": "[1]; read-out: IC50, binding of radiolabeled IL-8", "value": 13.7, "unit": "µM"}, {"measurement": "Ki", "setting": "[1]; specific binding of 125I-labeled IL-8, read-out: apparent K1 (estimated, purely competitive single site model)", "value": "~10", "unit": "µM"}, {"measurement": "% Binding Inhibition (IL-8 binding to neutrophils)", "setting": "[1]; synthetic peptides, standard assay (Table 6)", "value": "98.6 ± 0.9", "unit": "%"}, {"measurement": "chemotactic activity of the peptide (checkerboard analysis)", "setting": "neutrophils", "value": "not chemotactic for neutrophils"}, {"measurement": "effect on chemokinesis of neutrophils", "setting": "neutrophils; control studies, media alone", "value": "had no effect on chemokinesis"}, {"measurement": "migration, mean ± SD of experimental observations", "setting": "neutrophils; peptide below filter 1.0 μM, above filter 1.0 μM", "value": "27.8 ± 5.5"}, {"measurement": "calculated migration expected if cells responded to absolute concentration, not gradient", "setting": "neutrophils; [5]", "value": 29.1}, {"measurement": "migration, mean ± SD of experimental observations", "setting": "neutrophils; [5]", "value": "28.0 ± 4.7"}, {"measurement": "calculated migration expected if cells responded to absolute concentration, not gradient", "setting": "neutrophils; [6]", "value": 24.2}, {"measurement": "migration, mean ± SD of experimental observations", "setting": "neutrophils; [6]", "value": "25.6 ± 4.0"}, {"measurement": "calculated migration expected if cells responded to absolute concentration, not gradient", "setting": "neutrophils; [7]", "value": 24.3}, {"measurement": "migration, mean ± SD of experimental observations", "setting": "neutrophils; [7]", "value": "26.7 ± 6.3"}, {"measurement": "calculated migration expected if cells responded to absolute concentration, not gradient", "setting": "neutrophils; [8]", "value": 28.0}, {"measurement": "migration, mean ± SD of experimental observations", "setting": "neutrophils; [8]", "value": "29.6 ± 6.3"}, {"measurement": "migration, mean ± SD of experimental observations", "setting": "neutrophils; peptide below filter 5.0 μM, above filter 5.0 μM", "value": "29.3 ± 7.2"}, {"measurement": "calculated migration expected if cells responded to absolute concentration, not gradient", "setting": "neutrophils; [9]", "value": 23.7}, {"measurement": "migration, mean ± SD of experimental observations", "setting": "neutrophils; [9]", "value": "24.2 ± 5.4"}, {"measurement": "calculated migration expected if cells responded to absolute concentration, not gradient", "setting": "neutrophils; [10]", "value": 24.4}, {"measurement": "migration, mean ± SD of experimental observations", "setting": "neutrophils; [10]", "value": "25.9 ± 6.7"}, {"measurement": "calculated migration expected if cells responded to absolute concentration, not gradient", "setting": "neutrophils; [11]", "value": 28.4}, {"measurement": "migration, mean ± SD of experimental observations", "setting": "neutrophils; [11]", "value": "27.0 ± 5.5"}, {"measurement": "calculated migration expected if cells responded to absolute concentration, not gradient", "setting": "neutrophils; [12]", "value": 28.5}, {"measurement": "migration, mean ± SD of experimental observations", "setting": "neutrophils; [12]", "value": "27.5 ± 4.8"}, {"measurement": "migration, mean ± SD of experimental observations", "setting": "neutrophils; peptide below filter 12.5 μM, above filter 12.5 μM", "value": "22.9 ± 5.9"}, {"measurement": "calculated migration expected if cells responded to absolute concentration, not gradient", "setting": "neutrophils; [13]", "value": 24.5}, {"measurement": "migration, mean ± SD of experimental observations", "setting": "neutrophils; [13]", "value": "24.8 ± 5.8"}, {"measurement": "calculated migration expected if cells responded to absolute concentration, not gradient", "setting": "neutrophils; [14]", "value": 28.4}, {"measurement": "migration, mean ± SD of experimental observations", "setting": "neutrophils; [14]", "value": "30.9 ± 4.7"}, {"measurement": "calculated migration expected if cells responded to absolute concentration, not gradient", "setting": "neutrophils; [15]", "value": 27.1}, {"measurement": "migration, mean ± SD of experimental observations", "setting": "neutrophils; [15]", "value": "27.5 ± 4.9"}, {"measurement": "calculated migration expected if cells responded to absolute concentration, not gradient", "setting": "neutrophils; [16]", "value": 23.1}, {"measurement": "migration, mean ± SD of experimental observations", "setting": "neutrophils; [16]", "value": "27.9 ± 4.8"}, {"measurement": "migration, mean ± SD of experimental observations", "setting": "neutrophils; peptide below filter 25.0 μM, above filter 25.0 μM", "value": "24.7 ± 3.8"}, {"measurement": "effect on growth of Hep G2 liver cancer cells", "setting": "[2]", "value": "did not affect the growth"}, {"measurement": "% cell lysis", "setting": "Hs 294T; 1 μM peptide", "value": "−4.0 ± 5.2", "unit": "%"}, {"measurement": "% cell lysis", "setting": "Hs 294T; 5 μM peptide", "value": "−3.2 ± 7.2", "unit": "%"}, {"measurement": "% cell lysis", "setting": "Hs 294T; 20 μM peptide", "value": "−1.6 ± 3.7", "unit": "%"}, {"measurement": "% cell lysis", "setting": "Hs 294T; 100 μM peptide", "value": "2.4 ± 7.9", "unit": "%"}, {"measurement": "time within which the peptide is substantially eliminated from the culture", "setting": "[3]", "value": "≤ 24", "unit": "h"}, {"measurement": "decrease of the major radioactivity peak (intact peptide)", "setting": "[3]; after 24 hr", "value": "more than 85%"}]}
